Experimental data taken from article PMC5623949, “Exploiting the 2-Amino-1,3,4-thiadiazole Scaffold To Inhibit Trypanosoma brucei Pteridine Reductase in Support of Early-Stage Drug Discovery” (ACS Omega, 2017).
“Also recorded” adds a separate entry of the source.

Legend:
TbPTR1 = biological target: T1, TbPTR1 (Trypanosoma brucei brucei, UniProt O76290); experiment: biochemical; settings: for inhibition at 50 µM: 50 μM compound, read-out: % Inhibition TbPTR1 at 50 μM; for IC50: dose-response 0.001-100 μM
T1 construct: made in house
T1 sequence (O76290 1-268): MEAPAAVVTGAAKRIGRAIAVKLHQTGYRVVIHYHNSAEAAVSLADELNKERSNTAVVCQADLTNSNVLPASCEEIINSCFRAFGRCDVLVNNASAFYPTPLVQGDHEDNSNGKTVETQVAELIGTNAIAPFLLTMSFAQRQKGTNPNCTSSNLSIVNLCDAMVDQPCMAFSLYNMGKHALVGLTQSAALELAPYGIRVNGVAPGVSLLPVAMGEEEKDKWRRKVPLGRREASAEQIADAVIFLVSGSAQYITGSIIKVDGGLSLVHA

[1] = test system: T. b. brucei Lister 427 bloodstream forms; experiment: T. brucei resazurin assay for MTX potentiation and folic acid supplementation; format: cell-based, Trypanosoma brucei brucei; settings: for antiparasitic effect as single agent: compound alone, 4m at 50 μM
Procedure: T. b. brucei Lister 427 bloodstream forms were grown at 37 °C and 5% CO2 in a complete HMI-9 medium, supplemented with 10% FCS and 100 UI/mL of penicillin/streptomycin. The cultures were diluted until a cell density of 2 × 10^6/mL was reached. The efficacy of compounds against T. brucei bloodstream forms was evaluated using a modified resazurin-based assay previously described.[46] The compounds were prepared from a stock solution in 10 mM DMSO and diluted in HMI-9 (supplemented or not with 1 mM folic acid, Sigma-Aldrich) to 40 μM work solution (0.4% DMSO, with the DMSO limit in the assay being 0.4%). […] The 40 μM work solution was then used to perform serial dilutions (1:2) in a 96-well plate. Upon compound addition to the test plate, the mid-log bloodstream forms were added (100 μL) in complete HMI-9 medium (supplemented or not with 1 mM folic acid) at a final cell density of 1 × 10^4/mL in a final well volume of 200 μL with a maximum DMSO concentration of 0.2%. Following incubation for 72 h at 37 °C and 5% CO2, 20 μL of 0.5 mM resazurin solution was added, and the plates were incubated further for 4 h under the same conditions. Fluorescence was measured at 540 and 620 nm excitation and emission wavelengths, respectively, using a Synergy 2 multi-mode reader (BioTek). […] This approach requires the use of both compounds at their EC50 potency in the combination, which is impossible to be detected for compound 4m having no intrinsic antiparasitic activity as a single agent at the tested concentrations. Folic acid (1 mM) was chosen on the basis of the following experiments. The stock solution of 10 mM folic acid dissolved in NaOH solution was used to perform a dose–response curve with folic acid alone to evaluate the maximum amount we could use without compromising parasite growth due to pH modification of the media. […] The IC50 values reported are the averages of the results obtained in at least two independent experiments. Pentamidine was used as the reference drug and internal control in all assays.

CYP1A2 = biological target: T2, CYP1A2 (Homo sapiens, UniProt P05177); experiment: in vitro; set-up: cytochrome P450 isoform inhibition
T2 sequence (P05177 1-516): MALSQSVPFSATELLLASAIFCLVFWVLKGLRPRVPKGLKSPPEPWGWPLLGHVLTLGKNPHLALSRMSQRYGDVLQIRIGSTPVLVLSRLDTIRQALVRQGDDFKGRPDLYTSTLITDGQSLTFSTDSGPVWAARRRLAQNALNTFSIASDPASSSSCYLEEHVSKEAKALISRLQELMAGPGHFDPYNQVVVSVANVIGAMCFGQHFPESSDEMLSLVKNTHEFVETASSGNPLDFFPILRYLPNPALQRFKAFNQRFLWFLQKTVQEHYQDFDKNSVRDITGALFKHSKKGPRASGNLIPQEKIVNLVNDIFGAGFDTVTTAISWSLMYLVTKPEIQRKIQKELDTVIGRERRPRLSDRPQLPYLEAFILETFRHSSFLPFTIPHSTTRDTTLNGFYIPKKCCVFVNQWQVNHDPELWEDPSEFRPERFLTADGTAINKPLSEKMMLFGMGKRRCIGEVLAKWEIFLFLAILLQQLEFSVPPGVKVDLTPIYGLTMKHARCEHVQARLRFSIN
Procedure: (§1) Independent of the effect of any antiparasitic potential of compounds, they were evaluated using a panel of early-toxicity assays comprising cytotoxicity (A549, human lung adenocarcinoma epithelial cell line and WI-38, human lung fibroblasts), mitochondrial toxicity (786-O, human renal carcinoma cell line), hERG inhibition,[31] cytochrome P450 inhibition (CYP1A2, CYP2C9, CYP2C19, CYP2D6, and CYP3A4),[31] and Aurora B kinase inhibition. […] For the two compounds active against TbPTR1 (4m and 4o), IC50 against hERG, cytochrome P450, and mitochondrial toxicity were determined (reported in Supporting Information). We observed that the dose of compounds 4m, 4o, 4c, and 3k was 4 μM in the potentiation assays. […] In the case of hERG, CYP2D6, CYP2A9, CYP2C19, and mitochondrial toxicity, there is a selectivity index of around 3–4 fold, thus showing an acceptable profile.

CYP2C19 = CYP2C19 (Homo sapiens, UniProt P33261); experiment: in vitro; set-up: cytochrome P450 isoform inhibition
Chain of CYP2C19 (P33261 whole entry, canonical isoform): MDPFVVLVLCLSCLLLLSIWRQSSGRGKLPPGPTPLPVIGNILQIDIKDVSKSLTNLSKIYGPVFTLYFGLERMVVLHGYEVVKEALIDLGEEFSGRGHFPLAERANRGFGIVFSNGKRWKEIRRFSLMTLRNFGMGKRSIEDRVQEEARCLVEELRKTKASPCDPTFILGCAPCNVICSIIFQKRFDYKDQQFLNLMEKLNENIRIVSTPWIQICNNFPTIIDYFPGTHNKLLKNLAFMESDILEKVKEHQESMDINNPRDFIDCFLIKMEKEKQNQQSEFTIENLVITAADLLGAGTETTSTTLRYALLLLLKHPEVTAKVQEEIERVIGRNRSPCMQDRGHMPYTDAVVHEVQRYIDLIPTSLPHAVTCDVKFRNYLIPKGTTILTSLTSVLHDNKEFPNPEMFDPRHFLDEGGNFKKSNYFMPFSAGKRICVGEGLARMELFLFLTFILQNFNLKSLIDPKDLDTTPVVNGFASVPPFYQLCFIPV
Procedure: as §1

CYP2C9 = CYP2C9 (Homo sapiens, UniProt P11712); experiment: in vitro; set-up: cytochrome P450 isoform inhibition
Chain of CYP2C9 (P11712 whole entry, canonical isoform): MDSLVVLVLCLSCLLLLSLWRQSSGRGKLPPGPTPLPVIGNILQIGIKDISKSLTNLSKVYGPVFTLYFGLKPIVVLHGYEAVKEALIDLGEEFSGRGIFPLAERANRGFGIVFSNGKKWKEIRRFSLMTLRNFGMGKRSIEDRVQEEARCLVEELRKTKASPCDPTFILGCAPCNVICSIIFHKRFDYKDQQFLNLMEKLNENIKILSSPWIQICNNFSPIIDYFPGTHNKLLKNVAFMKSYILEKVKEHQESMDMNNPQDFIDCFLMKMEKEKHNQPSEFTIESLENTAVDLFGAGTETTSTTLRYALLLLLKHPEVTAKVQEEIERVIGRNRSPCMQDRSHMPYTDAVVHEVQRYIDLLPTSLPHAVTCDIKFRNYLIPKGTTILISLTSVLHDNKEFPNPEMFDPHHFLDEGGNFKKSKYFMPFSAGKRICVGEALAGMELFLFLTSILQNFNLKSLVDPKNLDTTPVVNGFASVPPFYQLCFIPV
Procedure: as §1

CYP2D6 = CYP2D6 (Homo sapiens, UniProt P10635); experiment: in vitro; set-up: cytochrome P450 isoform inhibition
Chain of CYP2D6 (P10635 whole entry, canonical isoform): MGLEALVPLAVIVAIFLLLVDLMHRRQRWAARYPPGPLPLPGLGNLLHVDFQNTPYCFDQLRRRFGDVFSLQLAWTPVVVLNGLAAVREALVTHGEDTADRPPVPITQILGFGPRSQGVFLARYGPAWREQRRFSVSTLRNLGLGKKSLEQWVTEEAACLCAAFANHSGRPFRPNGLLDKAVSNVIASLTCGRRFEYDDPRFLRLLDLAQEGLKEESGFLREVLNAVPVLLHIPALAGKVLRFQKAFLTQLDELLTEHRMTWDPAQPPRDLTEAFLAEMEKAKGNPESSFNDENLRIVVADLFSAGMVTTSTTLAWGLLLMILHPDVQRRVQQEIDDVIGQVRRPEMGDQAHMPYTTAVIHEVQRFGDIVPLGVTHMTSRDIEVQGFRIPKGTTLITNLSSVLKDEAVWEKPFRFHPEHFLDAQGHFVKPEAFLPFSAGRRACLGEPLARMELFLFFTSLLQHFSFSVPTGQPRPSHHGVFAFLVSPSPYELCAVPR
Procedure: as §1

CYP3A4 = CYP3A4 (Homo sapiens, UniProt P08684); experiment: in vitro; set-up: cytochrome P450 isoform inhibition
Chain of CYP3A4 (P08684 whole entry, canonical isoform): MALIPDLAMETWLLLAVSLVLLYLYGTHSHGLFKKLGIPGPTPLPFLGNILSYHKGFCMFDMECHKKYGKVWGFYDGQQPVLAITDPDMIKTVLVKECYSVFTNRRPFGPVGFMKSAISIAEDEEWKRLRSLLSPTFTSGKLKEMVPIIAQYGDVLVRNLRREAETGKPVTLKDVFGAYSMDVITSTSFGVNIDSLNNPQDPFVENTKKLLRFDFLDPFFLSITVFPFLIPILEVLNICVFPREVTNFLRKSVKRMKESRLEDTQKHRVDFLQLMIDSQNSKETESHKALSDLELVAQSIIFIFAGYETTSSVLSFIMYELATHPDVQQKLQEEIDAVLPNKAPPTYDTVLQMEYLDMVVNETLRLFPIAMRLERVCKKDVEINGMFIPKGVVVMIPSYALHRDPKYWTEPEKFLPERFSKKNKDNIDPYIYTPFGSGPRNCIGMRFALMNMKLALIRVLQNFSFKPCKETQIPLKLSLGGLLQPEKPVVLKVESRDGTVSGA
Procedure: as §1

| SMILES | inhibition at 50 µM (TbPTR1) | IC50 (TbPTR1) | antiparasitic effect as single agent [1] | inhibition at 10 µM (CYP1A2) | inhibition at 10 µM (CYP2C19) | inhibition at 10 µM (CYP2C9) | inhibition at 10 µM (CYP2D6) | inhibition at 10 µM (CYP3A4) | effect of 1 mM folic acid on T. b. brucei growth inhibition ([1]; 1 mM folic acid, MTX alone or equimolar 4m + MTX) |
| --- | --- | --- | --- | --- | --- | --- | --- | --- | --- |
| Nc1nnc(NCCc2cccs2)s1 [4o, N2G(2G(thiophenG2Gyl)ethyl)G1,3,4GthiadiazoleG2,5Gdiamine] | 79.8 ± 0.4% | 25 µM | low T. brucei cell inhibitory activity | -2.9 ± 3.4% | -20.9 ± 6.1% | 3.1 ± 4.8% | 81.2 ± 1.2% | 30.4 ± 4.5% |  |
| Nc1nnc(NCc2ccc(-c3ccccc3)cc2)s1 [4m] | 73 ± 1.1% | 16 µM | did not show any significant antiparasitic effect | 60.4 ± 4.5% | 22.5 ± 4.7% | 46.9 ± 4.4% | 53.6 ± 0.6% | 25.6 ± 6.3% | reversed; also recorded: rescue cell growth |
